{
  "source": "patent US9212348B2",
  "about": "“Method for producing hematopoietic stem cells using pyrazole compounds” (NISSAN CHEMICAL INDUSTRIES, LTD., priority 2010, dated 2015)",
  "data": [
    {"test_system": "CD34+CD38- cells", "assay": "Assay Example 3: expansion of CD34+CD38- cells using human cord blood-derived CD34+ cells (Table 22)", "assay_type": "cell-based", "details": "based on number of CD34+CD38- cells in absence of compound; 0.01 to 10 μg/mL compound; 100 ng/mL SCF and 20 ng/mL TPO; 7 days", "description": "Human cord blood-derived CD34^+ cells purchased from the same supplier as in Assay Example 1 were plated on a 24-well plate (Corning) (10000 cells/1 mL/well). As the culture medium, StemSpan SFEM (StemCell Technologies) containing 100 ng/mL SCF (Wako Pure Chemical Industries) in terms of final concentration and 20 ng/mL TPO (PeproTech) in terms of final concentration was used, and Compounds Nos. 1-01 to 4-91 dissolved in dimethyl sulfoxide were added in an amount of 0.1% (v/v) to a final concentration of 0.01 to 10 μg/mL. As a negative control, the medium containing 0.1% (v/v) dimethyl sulfoxide was used.\nAfter the cells were incubated in liquid culture at 37° C. for 7 days in a CO2 incubator (5% CO2), the number of viable cells was counted by trypan blue assay. The number of CD34^+CD38^− cells was calculated in the same manner as in Assay Example 1.", "values": [
      {"smiles": "CCCCCCc1ccc(-c2c(C(C)C)nn(C(C)(C)Cc3ccc(C)cc3)c2O)cc1", "note": "[Compound No. 3-07, 4-(4-hexylphenyl)-3-isopropyl-1-(2-methyl-1-p-tolylpropan-2-yl)-1H-pyrazol-5-ol]", "Expansion efficiency": "A (A for expansion efficiencies of 4 or greater)"},
      {"smiles": "CC(C)C1=NN(C(C)(C)Cc2ccc(Br)cc2)C(=O)C1", "note": "[Compound No. 3-12, 1-(1-(4-bromophenyl)-2-methylpropan-2-yl)-3-isopropyl-1H-pyrazol-5(4H)-one]", "Expansion efficiency": "B (B for expansion efficiencies of at least 3 and less than 4)"},
      {"smiles": "CC(C)(Cc1ccccc1)N1N=C(c2ccccc2)CC1=O", "note": "[Compound No. 3-16, 1-(2-methyl-1-phenylpropan-2-yl)-3-phenyl-1H-pyrazol-5(4H)-one]", "Expansion efficiency": "A (A for expansion efficiencies of 4 or greater)"},
      {"smiles": "CC(C)C1=NN(C(C)(C)Cc2ccccc2)C(=O)C1Br", "note": "(stereo not shown) [Compound No. 3-47, 4-bromo-3-isopropyl-1-(2-methyl-1-phenylpropan-2-yl)-1H-pyrazol-5(4H)-one]", "Expansion efficiency": "C (C for expansion efficiencies of at least 1.5 and less than 3)"},
      {"smiles": "COC(=O)CC1=NN(C(C)(C)c2ccccc2)C(=O)C1", "note": "[Compound No. 4-01, methyl 2-(5-oxo-1-(2-phenylpropan-2-yl)-4,5-dihydro-1H-pyrazol-3-yl)acetate]", "Expansion efficiency": "C (C for expansion efficiencies of at least 1.5 and less than 3)"},
      {"smiles": "COC(=O)c1ccc(-c2c(C(C)C)nn(C(C)(C)Cc3ccccc3)c2O)cc1", "note": "[Compound No. 4-23, methyl 4-(5-hydroxy-3-isopropyl-1-(2-methyl-1-phenylpropan-2-yl)-1H-pyrazol-4-yl)benzoate]", "Expansion efficiency": "A (A for expansion efficiencies of 4 or greater)"},
      {"smiles": "CCCCCCc1ccc(-c2c(C#N)nn(C(C)(C)Cc3ccc(C)cc3)c2O)cc1", "note": "[Compound No. 4-86, 4-(4-Hexylphenyl)-5-hydroxy-1-(2-methyl-1-(p-tolyl)propan-2-yl)-1H-pyrazole-3-carbonitrile]", "Expansion efficiency": "C (C for expansion efficiencies of at least 1.5 and less than 3)"},
      {"smiles": "CON=C(C)c1c(C(C)C)nn(C(C)(C)Cc2ccccc2)c1O", "note": "[Compound No. 4-89, 1-(5-Hydroxy-3-isopropyl-1-(2-methyl-1-phenylpropan-2-yl)-1H-pyrazol-4-yl)ethanone O-methyl oxime]", "Expansion efficiency": "C (C for expansion efficiencies of at least 1.5 and less than 3)"}
    ]},
    {"test_system": "not given", "assay": "not given", "details": "not given", "units": {"melting point": "°C"}, "values": [
      {"smiles": "CCCCCCc1ccc(-c2c(C#N)nn(C(C)(C)Cc3ccc(C)cc3)c2O)cc1", "note": "[Compound No. 4-86, 4-(4-Hexylphenyl)-5-hydroxy-1-(2-methyl-1-(p-tolyl)propan-2-yl)-1H-pyrazole-3-carbonitrile]", "melting point": "140 to 142"},
      {"smiles": "CCCCCCc1ccc(-c2cnn(C(C)(C)Cc3ccc(C)cc3)c2O)cc1", "note": "[Compound No. 4-90, 4-(4-Hexylphenyl)-1-(2-methyl-1-(p-tolyl)propan-2-yl)-1H-pyrazol-5-ol]", "melting point": "149 to 151"}
    ]}
  ]
}
